In ChEMBL document CHEMBL2396516, “Synthesis of novel bis(pyrimido[5,4-c]quinoline-2,4(1H,3H)-dione) and its derivatives: evaluation of their antioxidant properties” (Bioorg Med Chem Lett, 2013):
In brackets after ≈: the same amount, converted by molar mass.

What was measured:
Format in all cases: functional
[1] = Antioxidant activity assessed as reduction of ferric ion to ferrous ion by FRAP assay
[2] = test system: Radical scavenging activity; assay: Antioxidant activity assessed as DPPH free radical scavenging activity at 20 ug/ml by spectrophotometry
[3] = test system: Radical scavenging activity; assay: Antioxidant activity assessed as DPPH free radical scavenging activity by spectrophotometry

SMILES	IC50 [1] [mg/L]	IC50 [3] [mg/L]	Activity [2] [%]
O=c1[nH]c2c(c(=O)[nH]1)C(c1ccc(Cl)cc1)Nc1nc3c(cc1-2)-c1[nH]c(=O)[nH]c(=O)c1C(c1ccc(Cl)cc1)N3 (stereo not drawn)	24.41 (≈ 42.5 µM)	12.35 (≈ 21.5 µM)	81.1
O=c1[nH]c(=S)[nH]c2c1C(c1ccc(Cl)cc1)Nc1nc3c(cc1-2)-c1[nH]c(=S)[nH]c(=O)c1C(c1ccc(Cl)cc1)N3 (stereo not drawn)	25 (≈ 41.2 µM)	12.36 (≈ 20.4 µM)	80.9
O=c1[nH]c(=S)[nH]c2c1C(c1ccccc1[N+](=O)[O-])Nc1cc3c(cc1-2)NC(c1ccccc1[N+](=O)[O-])c1c-3[nH]c(=S)[nH]c1=O (stereo not drawn)	29.5 (≈ 47.1 µM)	12.15 (≈ 19.4 µM)	82
O=c1[nH]c2c(c(=O)[nH]1)C(c1ccc([N+](=O)[O-])cc1)Nc1nc3c(cc1-2)-c1[nH]c(=O)[nH]c(=O)c1C(c1ccc([N+](=O)[O-])cc1)N3 (stereo not drawn)	26.06 (≈ 43.8 µM)	13.48 (≈ 22.6 µM)	74.2
O=c1[nH]c(=S)[nH]c2c1C(c1ccc([N+](=O)[O-])cc1)Nc1nc3c(cc1-2)-c1[nH]c(=S)[nH]c(=O)c1C(c1ccc([N+](=O)[O-])cc1)N3 (stereo not drawn)	26.25 (≈ 41.8 µM)	13.56 (≈ 21.6 µM)	74
O=c1[nH]c(=S)[nH]c2c1C(c1ccccc1Cl)Nc1cc3c(cc1-2)NC(c1ccccc1Cl)c1c-3[nH]c(=S)[nH]c1=O (stereo not drawn)	24.46 (≈ 40.4 µM)	11.99 (≈ 19.8 µM)	84.1
O=c1[nH]c2c(c(=O)[nH]1)C(c1ccc([N+](=O)[O-])cc1)Nc1cc3c(cc1-2)NC(c1ccc([N+](=O)[O-])cc1)c1c-3[nH]c(=O)[nH]c1=O (stereo not drawn)	25.01 (≈ 42.1 µM)	12.44 (≈ 20.9 µM)	80.9
O=c1[nH]c(=S)[nH]c2c1C(c1ccccc1Cl)Nc1nc3c(cc1-2)-c1[nH]c(=S)[nH]c(=O)c1C(c1ccccc1Cl)N3 (stereo not drawn)	25.07 (≈ 41.3 µM)	12.41 (≈ 20.5 µM)	80.6
O=c1[nH]c(=S)[nH]c2c1C(c1ccccc1[N+](=O)[O-])Nc1nc3c(cc1-2)-c1[nH]c(=S)[nH]c(=O)c1C(c1ccccc1[N+](=O)[O-])N3 (stereo not drawn)	30.47 (≈ 48.5 µM)	13.6 (≈ 21.7 µM)	73.6
O=c1[nH]c(=S)[nH]c2c1C(c1ccc([N+](=O)[O-])cc1)Nc1cc3c(cc1-2)NC(c1ccc([N+](=O)[O-])cc1)c1c-3[nH]c(=S)[nH]c1=O (stereo not drawn)	25.21 (≈ 40.2 µM)	12.17 (≈ 19.4 µM)	82.3
O=c1[nH]c2c(c(=O)[nH]1)C(c1cccc([N+](=O)[O-])c1)Nc1cc3c(cc1-2)NC(c1cccc([N+](=O)[O-])c1)c1c-3[nH]c(=O)[nH]c1=O (stereo not drawn)	33.28 (≈ 56 µM)	12.39 (≈ 20.8 µM)	81.7
O=c1[nH]c(=S)[nH]c2c1C(c1cccc([N+](=O)[O-])c1)Nc1cc3c(cc1-2)NC(c1cccc([N+](=O)[O-])c1)c1c-3[nH]c(=S)[nH]c1=O (stereo not drawn)	33.7 (≈ 53.8 µM)	12.68 (≈ 20.2 µM)	79.3
O=c1[nH]c2c(c(=O)[nH]1)C(c1ccc(Cl)cc1)Nc1cc3c(cc1-2)NC(c1ccc(Cl)cc1)c1c-3[nH]c(=O)[nH]c1=O (stereo not drawn)	23.21 (≈ 40.5 µM)	11.8 (≈ 20.6 µM)	85.2
O=c1[nH]c2c(c(=O)[nH]1)C(c1cccc([N+](=O)[O-])c1)Nc1nc3c(cc1-2)-c1[nH]c(=O)[nH]c(=O)c1C(c1cccc([N+](=O)[O-])c1)N3 (stereo not drawn)	34.9 (≈ 58.6 µM)	14.24 (≈ 23.9 µM)	70.2
O=c1[nH]c(=S)[nH]c2c1C(c1cccc([N+](=O)[O-])c1)Nc1nc3c(cc1-2)-c1[nH]c(=S)[nH]c(=O)c1C(c1cccc([N+](=O)[O-])c1)N3 (stereo not drawn)	34.93 (≈ 55.7 µM)	14.34 (≈ 22.8 µM)	70.1
O=c1[nH]c(=S)[nH]c2c1C(c1ccc(Cl)cc1)Nc1cc3c(cc1-2)NC(c1ccc(Cl)cc1)c1c-3[nH]c(=S)[nH]c1=O (stereo not drawn)	24.11 (≈ 39.8 µM)	11.93 (≈ 19.7 µM)	84.4

Continued, in another order:

IC50 [1] [mg/L]	IC50 [3] [mg/L]	SMILES	Activity [2] [%]
31.39 (≈ 52.7 µM)	13.56 (≈ 22.8 µM)	O=c1[nH]c2c(c(=O)[nH]1)C(c1ccccc1[N+](=O)[O-])Nc1nc3c(cc1-2)-c1[nH]c(=O)[nH]c(=O)c1C(c1ccccc1[N+](=O)[O-])N3 (stereo not drawn)	74
25.51 (≈ 44.4 µM)	12.42 (≈ 21.6 µM)	O=c1[nH]c2c(c(=O)[nH]1)C(c1ccccc1Cl)Nc1nc3c(cc1-2)-c1[nH]c(=O)[nH]c(=O)c1C(c1ccccc1Cl)N3 (stereo not drawn)	80.8
–	18.91 (≈ 64.9 µM)	O=c1[nH]c2c(c(=O)[nH]1)C(c1ccccc1)c1ccccc1N2 (stereo not drawn)	–
32.1 (≈ 59.8 µM)	12.62 (≈ 23.5 µM)	O=c1[nH]c(=S)[nH]c2c1C(c1ccccc1)Nc1cc3c(cc1-2)NC(c1ccccc1)c1c-3[nH]c(=S)[nH]c1=O (stereo not drawn)	79.6
24.01 (≈ 41.9 µM)	12.05 (≈ 21 µM)	O=c1[nH]c2c(c(=O)[nH]1)C(c1ccccc1Cl)Nc1cc3c(cc1-2)NC(c1ccccc1Cl)c1c-3[nH]c(=O)[nH]c1=O (stereo not drawn)	84
33.91 (≈ 67.1 µM)	14.21 (≈ 28.1 µM)	O=c1[nH]c2c(c(=O)[nH]1)C(c1ccccc1)Nc1nc3c(cc1-2)-c1[nH]c(=O)[nH]c(=O)c1C(c1ccccc1)N3 (stereo not drawn)	70.6
32.76 (≈ 64.9 µM)	12.15 (≈ 24.1 µM)	O=c1[nH]c2c(c(=O)[nH]1)C(c1ccccc1)Nc1cc3c(cc1-2)NC(c1ccccc1)c1c-3[nH]c(=O)[nH]c1=O (stereo not drawn)	82
29.08 (≈ 48.9 µM)	12.07 (≈ 20.3 µM)	O=c1[nH]c2c(c(=O)[nH]1)C(c1ccccc1[N+](=O)[O-])Nc1cc3c(cc1-2)NC(c1ccccc1[N+](=O)[O-])c1c-3[nH]c(=O)[nH]c1=O (stereo not drawn)	82.7
33.5 (≈ 62.3 µM)	14.25 (≈ 26.5 µM)	O=c1[nH]c(=S)[nH]c2c1C(c1ccccc1)Nc1nc3c(cc1-2)-c1[nH]c(=S)[nH]c(=O)c1C(c1ccccc1)N3 (stereo not drawn)	70.4
